# Measurements as given in patent publication US5817640A (Gensia Pharmaceuticals, priority 1995, dated 1998).
# Entries after “also recorded” stand apart in the source; their conditions may differ.
# Columns and labels:
# Assay type in all cases: in vivo, human
# [1] = Safety assessment / adverse events in CABG patients (Phase 2); conditions: for Patients with one or more adverse events: placebo 29 of 37
# Procedure: In addition to the hemodynamic monitoring described above the following tests were performed at screening, on the first post-operative day and at discharge:
# 4. Any adverse events were recorded throughout by the investigator, who assessed their severity and the relationship of these adverse experiences to the treatment.
# 11. Adverse Effects. The incidence, severity and drug-relatedness of any adverse effects were tabulated by treatment group by decreasing incidence of such effects in the high dose group. Statistical analysis was not performed.
# [2] = system: patients undergoing coronary artery bypass graft (CABG) surgery; test: Transmural and non-transmural myocardial infarction, CK-MB and CK release, clinical outcomes (Phase 2); conditions: for Number of patients developing transmural myocardial infarction (new Q-wave and CK-MB ≥ 50 I.U.): placebo 5 of 37; for Number of patients with non-transmural myocardial infarction (CK-MB ≥ 50 I.U.): placebo 17
# Procedure: Creatinine phosphokinase MB band (CK-MB) was obtained every 8 hours for 48 hours and when indicated. Radio-nuclide ventriculography for ejection fraction and wall motion score was done about 14 days post-operation and as close to hospital discharge as possible. Other tests and measurements (e.g., chest x-ray, pulmonary artery wedge pressure (PCWP) were performed when clinically indicated for diagnosis or evaluation of myocardial infarction, or congestive heart failure. Timing and dose of all cardiovascular medications within 48 hours after surgery were recorded. The total dose of all analgesics during the 24-hour post-operative period was recorded. Fluid intake and output (e.g., blood replacement and urine output) were recorded for 48 hours. The type and duration of inotropic support and antiarrhythmic intervention required were recorded through 24 hours after surgery. Two-channel Holter recordings were obtained during 3 periods, the eight hours prior to intubation, from intubation through the end of surgery, and for an additional 24-48 hours after surgery. […] For the diagnosis of myocardial infarction, ECG tracings and CK-MB values were assessed centrally by observers blinded to treatment. The difficulty of weaning the patient from bypass, if any, was compared between placebo and treatment groups by noting need for one or more of the following: pacemaker, return to bypass, balloon pump or use of vasopressors. 4. Clinical Outcome. Outcomes of cardiac death, MI, CHF and life-threatening dysrhythmia were compared. Specific endpoints for analysis were combined into a dichotomous endpoint, i.e., at least one of the four events listed above occurs versus none occurs. Fisher's exact test for small samples was used to compare the rates of clinical outcome between the three treatment groups. […] Blood Chemistry--CPK, CK-MB, uric acid, glucose.
# [3] = system: patients undergoing coronary artery bypass graft (CABG) surgery; test: Incidence of clinical outcomes, Phase 3 CABG trial; conditions: high dose 0.1 mg/kg/min
# [4] = 0.05 mg/kg/min, n=41, ICU + 8 HR
# [5] = 0.05 mg/kg/min, n=41, ICU + 16 HR
# [6] = 0.05 mg/kg/min, n=41, ICU + 32 HR
# [7] = 0.05 mg/kg/min, n=41, ICU + 40 HR
# [8] = 0.05 mg/kg/min, n=41, ICU + 48 HR
# [9] = 0.05 mg/kg/min, n=41, discharge
# [10] = 0.10 mg/kg/min, n=35, ICU + 8 HR
# [11] = 0.10 mg/kg/min, n=35, ICU + 16 HR
# [12] = 0.10 mg/kg/min, n=35, ICU + 32 HR
# [13] = 0.10 mg/kg/min, n=35, ICU + 40 HR
# [14] = 0.10 mg/kg/min, n=35, ICU + 48 HR
# [15] = 0.10 mg/kg/min, n=35, discharge
structure (smiles),measurement,setting,value
"NC(=O)c1ncn([C@@H]2O[C@H](CO)[C@@H](O)[C@H]2O)c1N [AICA riboside, 5-amino-1-β-D-ribofuranosyl-imidazole-4-carboxamide]",Patients with one or more adverse events,[1]; 0.05 mg/kg/min,28/41
same,Patients with one or more adverse events,[1]; 0.1 mg/kg/min,30/35
same,Adverse events in individual patient,"[1]; 0.38 mg/kg/min, patient A5",no events other than S-T segment elevation on the ECG post-bypass
same,Frequency of adverse events vs placebo,"[1]; drug-treated patients, 0.05 and 0.1 mg/kg/min",no evidence that any of these events occurred more frequently in drug-treated patients compared with placebo
same,Tolerability,"[1]; first patients, 0.19 or 0.38 mg/kg/min",well tolerated
same,Serious adverse experiences,"[1]; first six patients, 0.19 or 0.38 mg/kg/min",no serious adverse experiences
same,Serum/urinary uric acid and crystalluria,"[1]; five drug-treated patients, 0.19 or 0.38 mg/kg/min",significant hyperuricemia and elevated urinary uric acid levels with crystalluria
same,Urine coloration,"[1]; five patients at 0.19 or 0.38 mg/kg/min, patient A14 at 0.05 mg/kg/min","same green coloration; also recorded: clear, green coloration"
same,"CK, mean baseline","[2]; 0.05 mg/kg/min group, n=41",89.2 +/- 30.9 U/L
same,"CK-MB, mean baseline","[2]; 0.05 mg/kg/min group, n=41",0.2 +/- 0.1 U/L
same,"CK-MB, mean change from baseline","[2]; 0.05 mg/kg/min, n=41, 24 HR POST",23.5 +/- 5.0 U/L
same,"CK, mean change from baseline","[2]; 0.05 mg/kg/min, n=41, ICU + 0",346.2 +/- 45.3 U/L
same,"CK-MB, mean change from baseline","[2]; 0.05 mg/kg/min, n=41, ICU + 0",24.5 +/- 2.7 U/L
same,"CK, mean change from baseline",[2]; [4],839.2 +/- 89.3 U/L
same,"CK-MB, mean change from baseline",[2]; [4],37.1 +/- 5.1 U/L
same,"CK, mean change from baseline",[2]; [5],1040.6 +/- 120.3 U/L
same,"CK-MB, mean change from baseline",[2]; [5],30.8 +/- 4.9 U/L
same,"CK, mean change from baseline",[2]; [6],874.7 +/- 126.3 U/L
same,"CK-MB, mean change from baseline",[2]; [6],9.2 +/- 2.5 U/L
same,"CK, mean change from baseline",[2]; [7],806.6 +/- 145.6 U/L
same,"CK-MB, mean change from baseline",[2]; [7],7.7 +/- 2.2 U/L
same,"CK, mean change from baseline",[2]; [8],784.0 +/- 149.9 U/L
same,"CK-MB, mean change from baseline",[2]; [8],3.9 +/- 1.5 U/L
same,"CK, mean change from baseline",[2]; [9],87.8 +/- 46.6 U/L
same,"CK-MB, mean change from baseline",[2]; [9],0.0 +/- 0.1 U/L
same,Number of patients developing transmural myocardial infarction (new Q-wave and CK-MB ≥ 50 I.U.),"[2]; 0.05 mg/kg/min, n=41, p=0.42",2 patients
same,Number of patients with non-transmural myocardial infarction (CK-MB ≥ 50 I.U.),"[2]; 0.05 mg/kg/min, n=41, p=0.10",13 patients
same,Incidence of transmural myocardial infarction,"[2]; 0.05 mg/kg/min, n=41, placebo […], p=0.42",4.9%
same,"CK, mean baseline","[2]; 0.10 mg/kg/min group, n=35",66.6 +/- 11.3 U/L
same,"CK-MB, mean baseline","[2]; 0.10 mg/kg/min group, n=35",0.1 +/- 0.1 U/L
same,"CK-MB, mean change from baseline","[2]; 0.10 mg/kg/min, n=35, 24 HR POST",21.1 +/- 5.3 U/L
same,"CK, mean change from baseline","[2]; 0.10 mg/kg/min, n=35, ICU + 0",386.1 +/- 51.8 U/L
same,"CK-MB, mean change from baseline","[2]; 0.10 mg/kg/min, n=35, ICU + 0",25.2 +/- 2.3 U/L
same,"CK, mean change from baseline",[2]; [10],869.6 +/- 143.7 U/L
same,"CK-MB, mean change from baseline",[2]; [10],34.3 +/- 6.2 U/L
same,"CK, mean change from baseline",[2]; [11],891.0 +/- 148.3 U/L
same,"CK-MB, mean change from baseline",[2]; [11],25.9 +/- 6.7 U/L
same,"CK, mean change from baseline",[2]; [12],894.0 +/- 142.9 U/L
same,"CK-MB, mean change from baseline",[2]; [12],12.8 +/- 4.5 U/L
same,"CK, mean change from baseline",[2]; [13],641.7 +/- 119.7 U/L
same,"CK-MB, mean change from baseline",[2]; [13],7.1 +/- 3.0 U/L
same,"CK, mean change from baseline",[2]; [14],499.8 +/- 100.5 U/L
same,"CK-MB, mean change from baseline",[2]; [14],3.5 +/- 2.1 U/L
same,"CK, mean change from baseline",[2]; [15],31.9 +/- 22.0 U/L
same,"CK-MB, mean change from baseline",[2]; [15],0.4 +/- 0.4 U/L
same,Number of patients developing transmural myocardial infarction (new Q-wave and CK-MB ≥ 50 I.U.),"[2]; 0.10 mg/kg/min, n=35, p=0.42",2 patients
same,"Non-transmural MI, combined treatment groups versus placebo","[2]; 0.05 + 0.1 mg/kg/min combined, p=0.046",statistically significant
same,Number of patients with non-transmural myocardial infarction (CK-MB ≥ 50 I.U.),"[2]; high dose (0.1 mg/kg/min; Table 6 head prints 0.01), n=35, p=0.10",8 patients
same,Incidence of non-transmural myocardial infarction (CK-MB ≥ 50 I.U.),"[2]; high dose (0.1 mg/kg/min; Table 6 head prints 0.01), n=35, placebo 47%, p=0.10",23.5%
same,"Rate of perioperative infarction, all drug-treated patients vs placebo","[2]; including first 5 which received higher doses, p<0.05",statistically significant reduction
same,"Other outcomes (CHF requiring balloon pump or LVAD, cardiac death, life-threatening arrhythmia)","[2]; three groups, exception patient A39 (intra-aortic balloon pump)",none of the other outcomes being evaluated
same,Total CK levels compared with placebo; same trend for CK-MB release,"[2]; treated groups, across all patients",trend toward a reduction in total CK levels in the treated groups compared with placebo
same,Reduction in the frequency of post-operative myocardial infarctions,"[2]; treatment groups vs placebo, p=0.15, not significant",64%
same,Incidence of myocardial infarction (ECG and CK-MB),"[3]; n=203, placebo 4.7%, p<0.05",1.5%
same,"Myocardial infarction (ECG and CK-MB), number of patients","[3]; n=203, placebo 10 of 211, p<0.05",3 patients
same,"Cardiac death, number of patients","[3]; n=207, placebo 3 of 212, NS",0 patients
same,Incidence of congestive heart failure,"[3]; n=207, placebo 3.8%, NS",2.9%
